From US20060154243A1 (priority 2003, published 2006)

What was measured:
Assay type in all cases: binding, human
[1] = system: serum 1a (individual 1, early serum)
[2] = system: serum 1b (individual 1, late serum)
serum 2 (individual 2) = system: serum 2 (individual 2)
serum 6 (individual 6) = system: serum 6 (individual 6)
serum 37 (individual 37) = system: serum 37 (individual 37)
serum 62 (individual 62) = system: serum 62 (individual 62)
serum London = system: serum London
serum SARS-yellow = system: serum SARS-yellow
serum SARS-green = system: serum SARS-green
[3] = system: control serum LUMC (pooled serum of ten healthy hospital workers)
[4] = system: control serum Blood-bank (commercial negative donor pooled serum)

LLLEWLAEVVKLPSR
Binding of serum 1a to linear peptides of Orf14 of SARS-CoV TOR2 [1]: 0.5
Binding of serum 1b to linear peptides of Orf14 of SARS-CoV TOR2 [2]: 0.4
Binding of serum 2 to linear peptides of Orf14 of SARS-CoV TOR2 (serum 2 (individual 2)): 0.4
Binding of serum 6 to linear peptides of Orf14 of SARS-CoV TOR2 (serum 6 (individual 6)): 0.6
Binding of serum 37 to linear peptides of Orf14 of SARS-CoV TOR2 (serum 37 (individual 37)): 0.7
Binding of serum 62 to linear peptides of Orf14 of SARS-CoV TOR2 (serum 62 (individual 62)): 0.4
Binding of serum London to linear peptides of Orf14 of SARS-CoV TOR2 (serum London): 0.6
Binding of serum SARS-yellow to linear peptides of Orf14 of SARS-CoV TOR2 (serum SARS-yellow): 0.2
Binding of serum SARS-green to linear peptides of Orf14 of SARS-CoV TOR2 (serum SARS-green): 0.3
Control serum LUMC linear peptides [3]: 0.5
Control serum LUMC looped peptides [3]: 0.5
Control Serum Blood-Bank Looped peptides [4]: 0.7
Control serum Blood-bank linear peptides [4]: 0.7

MLPPCYNFLKEQHCQ
Binding of serum 1a to linear peptides of Orf14 of SARS-CoV TOR2 [1]: 0.4
Binding of serum 1b to linear peptides of Orf14 of SARS-CoV TOR2 [2]: 0.4
Binding of serum 2 to linear peptides of Orf14 of SARS-CoV TOR2 (serum 2 (individual 2)): 0.3
Binding of serum 6 to linear peptides of Orf14 of SARS-CoV TOR2 (serum 6 (individual 6)): 0.5
Binding of serum 37 to linear peptides of Orf14 of SARS-CoV TOR2 (serum 37 (individual 37)): 0.5
Binding of serum 62 to linear peptides of Orf14 of SARS-CoV TOR2 (serum 62 (individual 62)): 0.3
Binding of serum London to linear peptides of Orf14 of SARS-CoV TOR2 (serum London): 0.4
Binding of serum SARS-yellow to linear peptides of Orf14 of SARS-CoV TOR2 (serum SARS-yellow): 0.2
Binding of serum SARS-green to linear peptides of Orf14 of SARS-CoV TOR2 (serum SARS-green): 0.2
Control serum LUMC linear peptides [3]: 0.5
Control serum LUMC looped peptides [3]: 0.6
Control Serum Blood-Bank Looped peptides [4]: 0.7
Control serum Blood-bank linear peptides [4]: 0.4

PHHVVAVIQEIQLLA
Binding of serum 1a to linear peptides of Orf14 of SARS-CoV TOR2 [1]: 0.4
Binding of serum 1b to linear peptides of Orf14 of SARS-CoV TOR2 [2]: 0.3
Binding of serum 2 to linear peptides of Orf14 of SARS-CoV TOR2 (serum 2 (individual 2)): 0.4
Binding of serum 6 to linear peptides of Orf14 of SARS-CoV TOR2 (serum 6 (individual 6)): 0.4
Binding of serum 37 to linear peptides of Orf14 of SARS-CoV TOR2 (serum 37 (individual 37)): 0.5
Binding of serum 62 to linear peptides of Orf14 of SARS-CoV TOR2 (serum 62 (individual 62)): 0.3
Binding of serum London to linear peptides of Orf14 of SARS-CoV TOR2 (serum London): 0.3
Binding of serum SARS-yellow to linear peptides of Orf14 of SARS-CoV TOR2 (serum SARS-yellow): 0.4
Binding of serum SARS-green to linear peptides of Orf14 of SARS-CoV TOR2 (serum SARS-green): 0.2
Control serum LUMC linear peptides [3]: 0.5
Control serum LUMC looped peptides [3]: 0.6
Control Serum Blood-Bank Looped peptides [4]: 0.5
Control serum Blood-bank linear peptides [4]: 0.4

PLLAPHHVVAVIQEI
Binding of serum 1a to linear peptides of Orf14 of SARS-CoV TOR2 [1]: 0.5
Binding of serum 1b to linear peptides of Orf14 of SARS-CoV TOR2 [2]: 0.4
Binding of serum 2 to linear peptides of Orf14 of SARS-CoV TOR2 (serum 2 (individual 2)): 0.4
Binding of serum 6 to linear peptides of Orf14 of SARS-CoV TOR2 (serum 6 (individual 6)): 0.4
Binding of serum 37 to linear peptides of Orf14 of SARS-CoV TOR2 (serum 37 (individual 37)): 0.6
Binding of serum 62 to linear peptides of Orf14 of SARS-CoV TOR2 (serum 62 (individual 62)): 0.4
Binding of serum London to linear peptides of Orf14 of SARS-CoV TOR2 (serum London): 0.5
Binding of serum SARS-yellow to linear peptides of Orf14 of SARS-CoV TOR2 (serum SARS-yellow): 0.4
Binding of serum SARS-green to linear peptides of Orf14 of SARS-CoV TOR2 (serum SARS-green): 0.2
Control serum LUMC linear peptides [3]: 0.5
Control serum LUMC looped peptides [3]: 0.6
Control Serum Blood-Bank Looped peptides [4]: 0.6
Control serum Blood-bank linear peptides [4]: 0.4

QEIQLLAAVGEILLL
Binding of serum 1a to linear peptides of Orf14 of SARS-CoV TOR2 [1]: 0.5
Binding of serum 1b to linear peptides of Orf14 of SARS-CoV TOR2 [2]: 0.4
Binding of serum 2 to linear peptides of Orf14 of SARS-CoV TOR2 (serum 2 (individual 2)): 0.5
Binding of serum 6 to linear peptides of Orf14 of SARS-CoV TOR2 (serum 6 (individual 6)): 0.4
Binding of serum 37 to linear peptides of Orf14 of SARS-CoV TOR2 (serum 37 (individual 37)): 0.6
Binding of serum 62 to linear peptides of Orf14 of SARS-CoV TOR2 (serum 62 (individual 62)): 0.4
Binding of serum London to linear peptides of Orf14 of SARS-CoV TOR2 (serum London): 0.3
Binding of serum SARS-yellow to linear peptides of Orf14 of SARS-CoV TOR2 (serum SARS-yellow): 0.5
Binding of serum SARS-green to linear peptides of Orf14 of SARS-CoV TOR2 (serum SARS-green): 0.2
Control serum LUMC linear peptides [3]: 0.7
Control serum LUMC looped peptides [3]: 0.5
Control Serum Blood-Bank Looped peptides [4]: 0.6
Control serum Blood-bank linear peptides [4]: 0.4

QLLAAVGEILLLEWL
Binding of serum 1a to linear peptides of Orf14 of SARS-CoV TOR2 [1]: 0.5
Binding of serum 1b to linear peptides of Orf14 of SARS-CoV TOR2 [2]: 0.4
Binding of serum 2 to linear peptides of Orf14 of SARS-CoV TOR2 (serum 2 (individual 2)): 0.4
Binding of serum 6 to linear peptides of Orf14 of SARS-CoV TOR2 (serum 6 (individual 6)): 0.3
Binding of serum 37 to linear peptides of Orf14 of SARS-CoV TOR2 (serum 37 (individual 37)): 0.6
Binding of serum 62 to linear peptides of Orf14 of SARS-CoV TOR2 (serum 62 (individual 62)): 0.4
Binding of serum London to linear peptides of Orf14 of SARS-CoV TOR2 (serum London): 0.4
Binding of serum SARS-yellow to linear peptides of Orf14 of SARS-CoV TOR2 (serum SARS-yellow): 0.4
Binding of serum SARS-green to linear peptides of Orf14 of SARS-CoV TOR2 (serum SARS-green): 0.1
Control serum LUMC linear peptides [3]: 0.6
Control serum LUMC looped peptides [3]: 0.5
Control Serum Blood-Bank Looped peptides [4]: 0.6
Control serum Blood-bank linear peptides [4]: 0.4

QREAEAAVKPLLAPH
Binding of serum 1a to linear peptides of Orf14 of SARS-CoV TOR2 [1]: 0.4
Binding of serum 1b to linear peptides of Orf14 of SARS-CoV TOR2 [2]: 0.3
Binding of serum 2 to linear peptides of Orf14 of SARS-CoV TOR2 (serum 2 (individual 2)): 0.4
Binding of serum 6 to linear peptides of Orf14 of SARS-CoV TOR2 (serum 6 (individual 6)): 0.5
Binding of serum 37 to linear peptides of Orf14 of SARS-CoV TOR2 (serum 37 (individual 37)): 0.4
Binding of serum 62 to linear peptides of Orf14 of SARS-CoV TOR2 (serum 62 (individual 62)): 0.3
Binding of serum London to linear peptides of Orf14 of SARS-CoV TOR2 (serum London): 0.4
Binding of serum SARS-yellow to linear peptides of Orf14 of SARS-CoV TOR2 (serum SARS-yellow): 0.2
Binding of serum SARS-green to linear peptides of Orf14 of SARS-CoV TOR2 (serum SARS-green): 0.3
Control serum LUMC linear peptides [3]: 0.4
Control serum LUMC looped peptides [3]: 0.7
Control Serum Blood-Bank Looped peptides [4]: 0.7
Control serum Blood-bank linear peptides [4]: 0.4
